Source: PubChem BioAssay AID1259407 (Chemical Carcinogenesis Research Information System (CCRIS), 2018)
Activity calls are given as the source filed them. The rule behind the calls is not given here.

Test system: CCRIS mutagenicity, Ames/micronucleus/aberration tests
Test: CCRIS mutagenicity studies
[1] = Test System: AMES SALMONELLA TYPHIMURIUM, Strain/Indicator: TA98, Metabolic Activation: HAMSTER, LIVER, S-9, AROCLOR 1254 (10%), Method: PREINCUBATION
[2] = Test System: AMES SALMONELLA TYPHIMURIUM, Strain/Indicator: TA98, Metabolic Activation: NONE, Method: PREINCUBATION
[3] = Test System: AMES SALMONELLA TYPHIMURIUM, Strain/Indicator: TA98, Metabolic Activation: RAT, LIVER, S-9, AROCLOR 1254 (10%), Method: PREINCUBATION
[4] = Test System: AMES SALMONELLA TYPHIMURIUM, Strain/Indicator: TA100, Metabolic Activation: HAMSTER, LIVER, S-9, AROCLOR 1254 (10%), Method: PREINCUBATION
[5] = Test System: AMES SALMONELLA TYPHIMURIUM, Strain/Indicator: TA100, Metabolic Activation: NONE, Method: PREINCUBATION
[6] = Test System: AMES SALMONELLA TYPHIMURIUM, Strain/Indicator: TA100, Metabolic Activation: RAT, LIVER, S-9, AROCLOR 1254 (10%), Method: PREINCUBATION
[7] = Test System: AMES SALMONELLA TYPHIMURIUM, Strain/Indicator: TA1535, Metabolic Activation: HAMSTER, LIVER, S-9, AROCLOR 1254 (10%), Method: PREINCUBATION
[8] = Test System: AMES SALMONELLA TYPHIMURIUM, Strain/Indicator: TA1535, Metabolic Activation: NONE, Method: PREINCUBATION
[9] = Test System: AMES SALMONELLA TYPHIMURIUM, Strain/Indicator: TA1535, Metabolic Activation: RAT, LIVER, S-9, AROCLOR 1254 (10%), Method: PREINCUBATION
[10] = Test System: AMES SALMONELLA TYPHIMURIUM, Strain/Indicator: TA1537, Metabolic Activation: HAMSTER, LIVER, S-9, AROCLOR 1254 (10%), Method: PREINCUBATION
[11] = Test System: AMES SALMONELLA TYPHIMURIUM, Strain/Indicator: TA1537, Metabolic Activation: NONE, Method: PREINCUBATION
[12] = Test System: AMES SALMONELLA TYPHIMURIUM, Strain/Indicator: TA1537, Metabolic Activation: RAT, LIVER, S-9, AROCLOR 1254 (10%), Method: PREINCUBATION
[13] = Test System: AMES SALMONELLA TYPHIMURIUM, Strain/Indicator: TA102, Metabolic Activation: NONE, Method: STANDARD PLATE
[14] = Test System: AMES SALMONELLA TYPHIMURIUM, Strain/Indicator: TA98, Metabolic Activation: NONE, Method: STANDARD PLATE
[15] = Test System: AMES SALMONELLA TYPHIMURIUM, Strain/Indicator: TA100, Metabolic Activation: NONE, Method: STANDARD PLATE

Row | SMILES | mutagenic call [1] | mutagenic call [2] | mutagenic call [3] | mutagenic call [4] | mutagenic call [5] | mutagenic call [6] | mutagenic call [7] | mutagenic call [8] | mutagenic call [9] | mutagenic call [10] | mutagenic call [11] | mutagenic call [12] | mutagenic call [13] | mutagenic call [14] | mutagenic call [15] | also measured
1 | C=C(C)C(=O)OCCC | inactive; negative | inactive; negative | inactive; negative | inactive; negative | inactive; negative | inactive; negative | inactive; negative | inactive; negative | inactive; negative | inactive; negative | inactive; negative | inactive; negative |  |  |  | 
2 | O=BOO |  |  |  |  |  |  |  |  |  |  |  |  | active; positive |  |  | mutagenic call (Test System: E. COLI, Strain/Indicator: WP2 (PKM101), Metabolic Activation: NONE, Method: STANDARD PLATE): active; positive; mutagenic call (Test System: E. COLI, Strain/Indicator: WP2 UVRA (PKM101), Metabolic Activation: NONE, Method: STANDARD PLATE): active; positive
3 | CC1=CCC(O)(C(C)C)CC1 (centres undefined) |  |  |  |  |  |  |  |  |  |  |  |  | inactive; negative | inactive; negative | inactive; negative | mutagenic call (Test System: AMES SALMONELLA TYPHIMURIUM, Strain/Indicator: TA98, Metabolic Activation: RAT, LIVER, S-9, Method: STANDARD PLATE): inactive; negative; mutagenic call (Test System: AMES SALMONELLA TYPHIMURIUM, Strain/Indicator: TA100, Metabolic Activation: RAT, LIVER, S-9, Method: STANDARD PLATE): inactive; negative; mutagenic call (Test System: AMES SALMONELLA TYPHIMURIUM, Strain/Indicator: TA102, Metabolic Activation: RAT, LIVER, S-9, Method: STANDARD PLATE): inactive; negative
4 | ClCC(Cl)Cl | inactive; negative | inactive; negative | inactive; negative | inactive; negative | inactive; negative | inactive; negative | inactive; negative | inactive; negative | inactive; negative | inactive; negative | inactive; negative | inactive; negative |  | inactive; negative | active; positive | mutagenic call (Test System: AMES SALMONELLA TYPHIMURIUM, Strain/Indicator: TA97, Metabolic Activation: HAMSTER, LIVER, S-9, AROCLOR 1254 (10%), Method: PREINCUBATION): inactive; negative; mutagenic call (Test System: AMES SALMONELLA TYPHIMURIUM, Strain/Indicator: TA97, Metabolic Activation: HAMSTER, LIVER, S-9, AROCLOR 1254 (30%), Method: PREINCUBATION): inactive; negative; mutagenic call (Test System: AMES SALMONELLA TYPHIMURIUM, Strain/Indicator: TA97, Metabolic Activation: NONE, Method: PREINCUBATION): inactive; negative; mutagenic call (Test System: AMES SALMONELLA TYPHIMURIUM, Strain/Indicator: TA97, Metabolic Activation: NONE, Method: STANDARD PLATE): active; positive; mutagenic call (Test System: AMES SALMONELLA TYPHIMURIUM, Strain/Indicator: TA97, Metabolic Activation: RAT, LIVER, S-9, AROCLOR 1254 (10%), Method: PREINCUBATION): inactive; negative; mutagenic call (Test System: AMES SALMONELLA TYPHIMURIUM, Strain/Indicator: TA97, Metabolic Activation: RAT, LIVER, S-9, AROCLOR 1254 (30%), Method: PREINCUBATION): inactive; negative; mutagenic call (Test System: AMES SALMONELLA TYPHIMURIUM, Strain/Indicator: TA97, Metabolic Activation: RAT, LIVER, S-9, AROCLOR 1254, Method: STANDARD PLATE): active; positive; mutagenic call (Test System: AMES SALMONELLA TYPHIMURIUM, Strain/Indicator: TA98, Metabolic Activation: HAMSTER, LIVER, S-9, AROCLOR 1254 (30%), Method: PREINCUBATION): inactive; negative; mutagenic call (Test System: AMES SALMONELLA TYPHIMURIUM, Strain/Indicator: TA98, Metabolic Activation: RAT, LIVER, S-9, AROCLOR 1254 (30%), Method: PREINCUBATION): inactive; negative; mutagenic call (Test System: AMES SALMONELLA TYPHIMURIUM, Strain/Indicator: TA98, Metabolic Activation: RAT, LIVER, S-9, AROCLOR 1254, Method: STANDARD PLATE): inactive; negative; mutagenic call (Test System: AMES SALMONELLA TYPHIMURIUM, Strain/Indicator: TA100, Metabolic Activation: HAMSTER, LIVER, S-9, AROCLOR 1254 (30%), Method: PREINCUBATION): inactive; negative; mutagenic call (Test System: AMES SALMONELLA TYPHIMURIUM, Strain/Indicator: TA100, Metabolic Activation: RAT, LIVER, S-9, AROCLOR 1254 (30%), Method: PREINCUBATION): inactive; negative; mutagenic call (Test System: AMES SALMONELLA TYPHIMURIUM, Strain/Indicator: TA100, Metabolic Activation: RAT, LIVER, S-9, AROCLOR 1254, Method: STANDARD PLATE): inactive; negative; mutagenic call (Test System: AMES SALMONELLA TYPHIMURIUM, Strain/Indicator: TA104, Metabolic Activation: NONE, Method: STANDARD PLATE): inactive; negative; mutagenic call (Test System: AMES SALMONELLA TYPHIMURIUM, Strain/Indicator: TA104, Metabolic Activation: RAT, LIVER, S-9, AROCLOR 1254, Method: STANDARD PLATE): active; positive; mutagenic call (Test System: AMES SALMONELLA TYPHIMURIUM, Strain/Indicator: TA1535, Metabolic Activation: HAMSTER, LIVER, S-9, AROCLOR 1254 (30%), Method: PREINCUBATION): inactive; negative; mutagenic call (Test System: AMES SALMONELLA TYPHIMURIUM, Strain/Indicator: TA1535, Metabolic Activation: RAT, LIVER, S-9, AROCLOR 1254 (30%), Method: PREINCUBATION): inactive; negative; mutagenic call (Test System: AMES SALMONELLA TYPHIMURIUM, Strain/Indicator: TA1537, Metabolic Activation: HAMSTER, LIVER, S-9, AROCLOR 1254 (30%), Method: PREINCUBATION): inactive; negative; mutagenic call (Test System: AMES SALMONELLA TYPHIMURIUM, Strain/Indicator: TA1537, Metabolic Activation: RAT, LIVER, S-9, AROCLOR 1254 (30%), Method: PREINCUBATION): inactive; negative
